The subject of experiment [1] is KRAS G12C mutant MIA PaCa-2 cells. Kind of experiment: Cell proliferation inhibition experiment, 3D spheroid, CellTiter-Glo, MIA PaCa-2. In kind it is cell-based, human. The conditions noted are these: Homo sapiens, MIA PaCa-2, 120 h, 3D cell model in 384-well spheroid plate, 5 days, CellTiter-Glo; read-out: MIA-PaCa2 IC50. A digest of the protocol: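 200 MIA PaCa-2 cells/well grown overnight as 3D spheroids, then exposed to 3.16-fold compound dilutions (0.1% DMSO final) for 5 days. Viability read by CellTiter-Glo luminescence; inhibition calculated against DMSO and medium-only controls, and IC50 fitted by four-parameter model.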
On the technique in general: In ATP-based viability assays light output follows the ATP content of the culture.

In experiment [2] the target is T1, KRAS G12C (Homo sapiens, UniProt P01116, G12C).
T1 construct: purchased Reactionbiology
Description: KRAS G12C NEA-HTRF experiment (SOS1-catalyzed displacement of GDP by GTP). In kind it is biochemical. The source says:
Raw materials and instruments: KRAS G12C (his-tag) purchased from Reactionbiology; batch number 3496; SOS1 purchased from Reactionbiology; batch number: 3501; GTP purchased from Sigma; article number: G8877; batch number: SLBV1450; Tris-HC1 purchased from Sigma; EDTA purchased from absin; article number: abs42017668; batch number: JE20; NaCl purchased from Sigma; article number: 55886; batch number: SLBW4193; MgCl2 purchased from Shyuanye; article number: R21455; batch number: L07S9G69806; HEPES purchased from Life Technologies; article number: 15630-080; batch number: 2037042; DTT purchased from Thermo Fisher; article number: R0862; batch number: 00608918; Triton X-100 purchased from Sigma; article number: T8787-100 ML; batch number: SLBW7103; DY647-labeled GDP purchased from Jena Bioscience; article number: NU-840-647P1; batch number: BM019-045; Anti-6H1S-Tb purchased from Cisbio; article number: 61H12TLA; batch number: 13A; Bradford Assay Kit purchased from Thermo Fisher; article number: 23246; batch number: UG287474; white opaque 96-well plate purchased from Cisbio; article number: 66PL96025; batch number: N°06; NAP-5 column purchased from GE Healthcare; article number: 17085301; batch number: 16995164; mircoplate reader purchased from PerkinElmer; model: Envision MLD2105-0020; equipment number 1050369. The effect of compounds on SOS1-catalyzed displacement of GDP by GTP on KRAS protein was examined using a homogeneous time-resolved fluorescence (HTRF) method. 30 μM 6×his-tagged KRAS G12C recombinant protein was incubated with 80 μM fluorescent dye DY647-labeled GDP in labeling buffer (1 mM DTT, 7.5 mM EDTA, 25 mM Tris-HCl, 45 mM NaCl) at 20° C. in the dark for 2 hours, purified using NAP-5 column, and then protein quantification was performed with Bradford Assay Kit after purification to determine the concentration of KRAS […] 3.16-fold gradient concentration stock solution of 1000× compound was prepared with DMSO, and diluted 250-fold to 4× compound stock solution with reaction buffer (40 mM HEPES, 10 mM MgCl2, 1 mM DTT, 0.002% Triton X-100). KRAS G12C-GDP/Tb working solution (40 nM KRAS […] Tb) and SOS1/GTP working solution (0.2 μM SOS1, 200 μM GTP) were prepared using the reaction buffer. A white opaque 96-well plate was taken, and 5 μL of 4× compound stock solution and 10 μL of KRAS G12C-GDP/Tb working solution were added to each well. 5 μL of reaction buffer instead of 4x compound stock solution was used in the control well. After incubation in the dark for 15 minutes at 20° C., 5μL of SOS1/GTP working solution was added thereto, and the fluorescence value (excitation wavelength: 320 nm, emission wavelength: 615 nm and 665 nm) was read after incubating at 20° C. in the dark for 2 hours. Another T0 group was set up with 10 μL reaction buffer+10 μL KRAS G12C-GDP/Tb working solution, and the fluorescence value was read directly by the microplate reader. The fluorescence signal ratio RLU=(665 nm signal/615 nm signal)×10^4; and the compound inhibition rate IR (%)=(RLUcompound-RLUcontrol)/(RLUT0-RLUcontrol)×100% were calculated. The IC50 value was calculated by fitting the gradient dilution concentration of compound and the corresponding inhibition rate with the four-parameter method. The NEA activity of the compounds prepared in the above embodiments of the present disclosure was 0.0001 μM to 1 μM; the inhibitory activity of some compounds on KRAS G12C mutant MIA PaCa-2 cells was 0.001 μM to 0.5 μM or 0.001 μM to 0.1 μM.
Background: TR-FRET usually uses a lanthanide donor and a delayed reading to cut background.

The subject of experiment [3] is KRAS G12C mutant NCI-H358 cells. Description: Cell proliferation inhibition experiment, 3D spheroid, CellTiter-Glo, NCI-H358. In kind it is cell-based, human. The conditions noted are these: Homo sapiens, NCI-H358, 120 h, NCI-H358 (KRAS G12C mutant) 3D spheroid, 5 days with compound, CellTiter-Glo; read-out: H358 IC50. In a few lines: (§1)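 Spheroids grown overnight from 800 H358 or 400 A549 cells were treated for 5 days with serially diluted compound (3.16-fold, 0.1% DMSO, 2% FBS). ATP-based luminescence gave IC50.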

Experiment [4] concerns phosphorylated ERK downstream of KRAS G12C in MIA PaCa2 cells. Kind of experiment: Cell p-ERK detection experiment (HTRF) in MIA PaCa2. In kind it is cell-based, human. The conditions noted are these: Homo sapiens, MIA PaCa-2, 2 h, MIA PaCa2 cells, 2 hours with compound, Advance ERK phospho-T202/Y204 HTRF kit; read-out: p-ERK IC50. The source says: Raw materials and instruments: MIA PaCa-2 purchased from ATCC; article number: CRL-1420; batch number: 63143594; DMEM purchased from Gibco; article number: 11995-065; batch number: 2186878; FBS purchased from Gibco; article number: 10099-141; batch number: 2109290CP; Horse serum purchased from Gibco; article number: 16050-122; batch number: 1818976; Trypsin-EDTA purchased from Gibco; article number: 25200-072; batch number: 2085552; PS purchased from Gibco; article number: 15140-122; batch number: 2145451; DMSO purchased from VWR AMRESCO; article number: 0231-500ML; batch number: 0457C072; 96-well cell culture plate purchased from Corning; article number: 3599; batch number: 22718601; white opaque 96-well plate purchased from Cisbio; article number: 66PL96025; batch number: N°05; Advance ERK phospho-T202/Y204 kit purchased from Cisbio; article number: 64AERPEH; batch number: 11D; microplate reader purchased from PerkinElmer; model: Envision MLD2105-0020; equipment number 1050369.
MIA PaCa2 was a KRAS G12C mutant human pancreatic cancer cell line cultured in 10% FBS+2.5% Horse serum DMEM culture medium. Cells at logarithmic growth stage were taken, digested with trypsin-EDTA, then collected and counted, and 2.5E4 cells were inoculated in a 96-well cell culture plate and cultured overnight. A 3.16-fold gradient concentration stock solution of 1000× compound was prepared with DMSO, and diluted 200-fold to 5× compound stock solution with culture medium. On the second day after cell inoculation, 5× compound stock solution was added to each cell culture well, with a final concentration of 1× and a DMSO content of 0.1%. DMSO was used as experimental control (control). After the compound was added and cultured for two hours, the residual culture medium was removed. 50 μL of cell lysate (from Advance ERK phospho-T202/Y204 kit, the same below) was added to each well, mixed well and incubated for 30 minutes, and then 16 μL of the mixed solution was transferred to a white opaque 96-well plate, and 16 μL of cell lysate was added to the blank wells. After the transfer was completed, 4 μL of p-ERK HTRF antibody (from Advance ERK phospho-T202/Y204 kit) mixture was added to each well, incubated for 4 hours, and the fluorescence value was read with the microplate reader. The inhibition rate of the compound IR (%)=(RLU control -RLU compound)/(RLU control-RLU blank)×100% was calculated. The gradient dilution concentration of the compound and the corresponding cell proliferation inhibition rate were fitted by Prism 8 four-parameter method, and the IC50 value was calculated. The compounds prepared in the above embodiments of the present disclosure have inhibitory activity of 0.0001 μM to 1 μM on the phosphorylated ERK level downstream of the cell channel of KRAS G12C protein mutant; some compounds have inhibitory activity of 0.001 μM to 1 μM or 0.001 μM to 0.5 μM on phosphorylated ERK level downstream of cell channel of KRAS G12C protein mutant.

The test system of experiment [5] is A549 cells (KRAS G12S mutant). Kind of experiment: Cell proliferation inhibition experiment, 3D spheroid, CellTiter-Glo, A549. The settings on record: Homo sapiens, A549, 120 h, A549 (KRAS G12S mutant) 3D spheroid, 5 days with compound, CellTiter-Glo; read-out: A549 IC50. In kind it is cell-based, human. A digest of the protocol: as §1

T1 sequence (P01116 1-188 isoform P01116-2 G12C): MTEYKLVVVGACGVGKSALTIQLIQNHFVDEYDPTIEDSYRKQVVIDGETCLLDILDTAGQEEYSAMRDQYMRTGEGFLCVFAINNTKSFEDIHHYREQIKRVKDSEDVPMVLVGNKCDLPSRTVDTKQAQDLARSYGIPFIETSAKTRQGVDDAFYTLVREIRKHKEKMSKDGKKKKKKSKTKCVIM

As to `C=CC(=O)N1CCN2C(=O)c3c(N4C[C@H](C(=O)O)CC4(C)C)nc(-c4c(O)cccc4F)c(Cl)c3OC[C@H]2C1` (single isomer, unassigned) [Z458-2], the IC50 is greater than 1000 nM in experiment [1] and 252 nM in experiment [2].
For `C=CC(=O)N1CCN2C(=O)c3c(N4CC(N5CC(OC)C5)CC4(C)C)nc(-c4ccccc4F)c(Cl)c3OC[C@H]2C1` (single isomer, unassigned) [Z479-2], the concentration for half-maximal inhibition (IC50) stood at 74.9 nM in experiment [3] and 431 nM in experiment [2].
For the compound `C=CC(=O)N1CCN2C(=O)c3c(N4CC(N5CC(F)C5)CC4(C)C)nc(-c4ccccc4F)c(Cl)c3OC[C@H]2C1` (single isomer, unassigned) [Z480-2], the IC50 in experiment [3] worked out at 155 nM; in experiment [2], 321 nM.
On to `C=CC(=O)N1CCN2C(=O)c3c(N4CC(N5CC(C(F)(F)F)C5)CC4(C)C)nc(-c4ccccc4F)c(Cl)c3OC[C@H]2C1` (single isomer, unassigned) [Z608-2], for which the IC50 in experiment [4] was found to be 286 nM; in experiment [2] it was 75.8 nM.
The like results for `C=CC(=O)N1CCN2C(=O)c3c(N4C[C@H](NCC(F)(F)F)CC4(C)C)nc(-c4ccccc4F)c(Cl)c3OC[C@H]2C1` (single isomer, unassigned) [Z662-2] were, in that order, 586 nM and 235 nM.
`C=CC(=O)N1CCN2C(=O)c3c(Oc4ccccc4C(C)C)nc(-c4c(O)cccc4F)c(Cl)c3OC[C@H]2C1` [Z18, (6aR)-8-acryloyl-4-chloro-3-(2-fluoro-6-hydroxyphenyl)-1-(2-isopropylphenoxy)-6,6a,7,8,9,10-hexahydro-12H-pyrazino[2,1-c]pyrido[3,4-f][1,4]oxazepin-12-one]: the IC50 is 7 nM in experiment [3], 8680 nM in experiment [5] and 73 nM in experiment [4].
On to `C=CC(=O)N1CCN2C(=O)c3c(N4CCCC4(C)C)nc(-c4ccccc4F)c(Cl)c3OC[C@H]2C1` [Z147, (R)-8-acryloyl-4-chloro-1-(2,2-dimethylpyrrolidin-1-yl)-3-(2-fluorophenyl)-6,6a,7,8,9,10-hexahydro-12H-pyrazino[2,1-c]pyrido[3,4-f][1,4]oxazepin-12-one], for which the values for the IC50 in experiment [3] and in experiment [4] were 22 nM and 180 nM, respectively.
With `C=CC(=O)N1CCN2C(=O)c3c(N4C[C@@H](C)O[C@H](C)C4)nc(-c4c(O)cccc4F)c(Cl)c3OC[C@H]2C1` [Z248-2, (6aR)-8-acryloyl-4-chloro-1-((2R,6R)-2,6-dimethylmorpholino)-3-(2-fluoro-6-hydroxyphenyl)-6,6a,7,8,9,10-hexahydro-12H-pyrazino[2,1-c]pyrido[3,4-f][1,4]oxazepin-12-one], the values for the IC50 in experiment [3] and in experiment [2] were 16 nM and 169 nM, respectively.
In the case of `C=CC(=O)N1CCN2C(=O)c3c(N4CCN5CCC[C@@H]5C4)nc(-c4c(O)cccc4F)c(Cl)c3OC[C@H]2C1` [Z317-2, (6aR)-8-acryloyl-4-chloro-3-(2-fluoro-6-hydroxyphenyl)-1-((R)-hexahydropyrrolo[1,2-a]pyrazin-2(1H)-yl)-6,6a,7,8,9,10-hexahydro-12H-pyrazino[2,1-c]pyrido[3,4-f][1,4]oxazepin-12-one], the half-inhibitory concentration (IC50) in experiment [3] was determined as 23.7 nM; in experiment [4], 162 nM.
As to `C=CC(=O)N1CCN2C(=O)c3c(N4CCN5CCCC5(C)C4)nc(-c4c(O)cccc4F)c(Cl)c3OC[C@H]2C1` (stereo partly drawn) [Z339, (6aR)-8-acryloyl-4-chloro-3-(2-fluoro-6-hydroxyphenyl)-1-(8a-methyloctahydropyrrolo[1,2-c]pyrazin-6 (2H)-one-1-yl)-6,6a,7,8,9,10-hexahydro-12H-pyrazino[2,1-c]pyrido[3,4-f][1,4]oxazepin-12-one], the half-maximal inhibitory concentration (IC50) in experiment [3] was found to be 29 nM; in experiment [4] it was 143 nM.
For `C=CC(=O)N1CCN2C(=O)c3c(N4CCN(CCOC)C(C)(C)C4)nc(-c4ccccc4F)c(Cl)c3OCC2C1` (centres unmarked) [Z478, 8-acryloyl-4-chloro-3-(2-fluorophenyl)-1-(4-(2-methoxyethyl)-3,3-dimethylpiperazin-1-yl)-6,6a,7,8,9,10-hexahydro-12H-pyrazino[2,1-c]pyrido[3,4-f][1,4]oxazepin-12-one], the IC50 in experiment [3] came to 29.6 nM; in experiment [2], 423 nM.

The IC50 is the midpoint of a concentration-inhibition curve.

Source of the values: patent US20230203060A1 (GENFLEET THERAPEUTICS (SHANGHAI) INC., priority 2020, published 2023).
